Test results published in PMC10301793 (Marine Drugs, 2023).
Like-named read-outs stand apart in the source and are kept apart here. Where a SMILES comes first, the peptide text is derived from it. Bridges are numbered along the chain shown (N, C = ends).

What was measured:
α7 nAChR = α7 nAChR (Rattus norvegicus, UniProt Q05941); assay: cell-based
α2β2 nAChR = α2β2 nAChR (Rattus norvegicus, UniProt P12389+P12390); assay: cell-based
α3β2 nAChR = α3β2 nAChR (Rattus norvegicus, UniProt P04757+P12390); assay: cell-based; format: cell-based
Sequence of α3β2 nAChR (P04757 26-499 limits assumed): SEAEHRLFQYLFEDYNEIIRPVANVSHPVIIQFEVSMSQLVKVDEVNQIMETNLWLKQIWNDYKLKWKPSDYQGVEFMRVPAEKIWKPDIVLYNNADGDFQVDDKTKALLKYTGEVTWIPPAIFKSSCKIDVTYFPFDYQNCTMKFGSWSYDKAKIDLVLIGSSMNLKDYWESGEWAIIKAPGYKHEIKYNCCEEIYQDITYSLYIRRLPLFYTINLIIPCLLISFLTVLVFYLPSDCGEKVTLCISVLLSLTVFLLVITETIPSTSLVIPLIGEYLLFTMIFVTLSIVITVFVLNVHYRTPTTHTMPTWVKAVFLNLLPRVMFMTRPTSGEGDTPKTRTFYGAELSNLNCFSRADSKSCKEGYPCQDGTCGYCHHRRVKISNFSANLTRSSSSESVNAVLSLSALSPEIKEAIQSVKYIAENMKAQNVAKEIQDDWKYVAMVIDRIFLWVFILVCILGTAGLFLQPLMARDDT
Sequence of α3β2 nAChR (P12390 25-500 limits assumed): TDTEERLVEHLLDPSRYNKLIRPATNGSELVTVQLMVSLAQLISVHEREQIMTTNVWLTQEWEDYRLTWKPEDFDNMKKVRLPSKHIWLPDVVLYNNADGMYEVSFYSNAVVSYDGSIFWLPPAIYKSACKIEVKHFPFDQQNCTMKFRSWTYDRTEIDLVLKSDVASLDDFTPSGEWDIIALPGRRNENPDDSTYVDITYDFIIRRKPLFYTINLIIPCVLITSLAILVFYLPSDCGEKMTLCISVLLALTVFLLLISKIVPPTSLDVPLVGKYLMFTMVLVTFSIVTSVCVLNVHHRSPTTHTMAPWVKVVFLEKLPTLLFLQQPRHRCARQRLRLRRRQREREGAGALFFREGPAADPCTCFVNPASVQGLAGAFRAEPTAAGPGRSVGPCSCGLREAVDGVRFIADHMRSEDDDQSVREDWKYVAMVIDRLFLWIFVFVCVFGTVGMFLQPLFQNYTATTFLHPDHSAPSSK

α3β4 nAChR = α3β4 nAChR (Rattus norvegicus, UniProt P04757+P12392); assay: cell-based
α4β2 nAChR = α4β2 nAChR (Rattus norvegicus, UniProt P09483+P12390); assay: cell-based
Sequence of α4β2 nAChR (P09483 31-630 limits assumed): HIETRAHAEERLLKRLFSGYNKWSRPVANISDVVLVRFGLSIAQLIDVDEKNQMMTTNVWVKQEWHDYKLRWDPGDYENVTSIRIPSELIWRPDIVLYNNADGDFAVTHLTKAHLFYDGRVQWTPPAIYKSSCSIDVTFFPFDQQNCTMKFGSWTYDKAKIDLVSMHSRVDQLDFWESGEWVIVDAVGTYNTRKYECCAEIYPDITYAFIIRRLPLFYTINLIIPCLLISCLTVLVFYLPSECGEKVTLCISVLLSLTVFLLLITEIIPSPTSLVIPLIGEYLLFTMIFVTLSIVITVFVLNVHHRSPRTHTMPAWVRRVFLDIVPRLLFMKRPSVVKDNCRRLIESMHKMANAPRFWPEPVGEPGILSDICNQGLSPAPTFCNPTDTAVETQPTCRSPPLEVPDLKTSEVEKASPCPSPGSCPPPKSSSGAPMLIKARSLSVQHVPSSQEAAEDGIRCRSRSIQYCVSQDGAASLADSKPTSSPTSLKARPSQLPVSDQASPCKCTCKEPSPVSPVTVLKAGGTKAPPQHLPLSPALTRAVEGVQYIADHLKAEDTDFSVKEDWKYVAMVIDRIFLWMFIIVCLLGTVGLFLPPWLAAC
Sequence of α4β2 nAChR (P12390 25-500 limits assumed): as the sequence (P12390 25-500 limits assumed) above

α6/α3β2β3 nAChR = α6/α3β2β3 nAChR (Rattus norvegicus, UniProt P04757+P12390+P12391+P43143); assay: cell-based
Sequence of α6/α3β2β3 nAChR (P04757 whole entry, looked up): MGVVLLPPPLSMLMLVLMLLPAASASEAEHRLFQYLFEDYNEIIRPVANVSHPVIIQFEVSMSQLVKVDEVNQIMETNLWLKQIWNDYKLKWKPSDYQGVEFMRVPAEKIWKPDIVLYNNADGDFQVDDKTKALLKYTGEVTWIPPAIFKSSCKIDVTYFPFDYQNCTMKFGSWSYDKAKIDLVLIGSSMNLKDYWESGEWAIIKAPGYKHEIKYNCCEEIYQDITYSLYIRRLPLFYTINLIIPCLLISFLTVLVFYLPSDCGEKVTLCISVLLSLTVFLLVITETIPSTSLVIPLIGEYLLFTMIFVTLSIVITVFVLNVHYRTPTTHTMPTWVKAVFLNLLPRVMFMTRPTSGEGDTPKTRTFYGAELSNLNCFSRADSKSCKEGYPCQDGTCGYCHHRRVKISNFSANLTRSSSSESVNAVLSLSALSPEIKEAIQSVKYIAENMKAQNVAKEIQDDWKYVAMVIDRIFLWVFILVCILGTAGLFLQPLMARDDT
Sequence of α6/α3β2β3 nAChR (P12390 whole entry, looked up): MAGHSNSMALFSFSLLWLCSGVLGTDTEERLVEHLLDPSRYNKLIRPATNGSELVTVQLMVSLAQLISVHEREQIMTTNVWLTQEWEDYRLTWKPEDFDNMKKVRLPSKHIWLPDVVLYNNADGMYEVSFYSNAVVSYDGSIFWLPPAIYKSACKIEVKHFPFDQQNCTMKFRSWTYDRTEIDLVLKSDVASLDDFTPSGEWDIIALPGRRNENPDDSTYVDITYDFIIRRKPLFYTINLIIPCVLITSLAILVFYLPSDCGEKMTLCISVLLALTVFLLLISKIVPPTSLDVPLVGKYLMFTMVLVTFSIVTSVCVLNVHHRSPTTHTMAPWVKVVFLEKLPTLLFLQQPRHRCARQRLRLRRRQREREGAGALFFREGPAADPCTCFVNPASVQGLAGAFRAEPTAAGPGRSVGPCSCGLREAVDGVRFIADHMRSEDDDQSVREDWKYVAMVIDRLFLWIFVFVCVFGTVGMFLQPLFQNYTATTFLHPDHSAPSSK
Sequence of α6/α3β2β3 nAChR (P12391 whole entry, looked up): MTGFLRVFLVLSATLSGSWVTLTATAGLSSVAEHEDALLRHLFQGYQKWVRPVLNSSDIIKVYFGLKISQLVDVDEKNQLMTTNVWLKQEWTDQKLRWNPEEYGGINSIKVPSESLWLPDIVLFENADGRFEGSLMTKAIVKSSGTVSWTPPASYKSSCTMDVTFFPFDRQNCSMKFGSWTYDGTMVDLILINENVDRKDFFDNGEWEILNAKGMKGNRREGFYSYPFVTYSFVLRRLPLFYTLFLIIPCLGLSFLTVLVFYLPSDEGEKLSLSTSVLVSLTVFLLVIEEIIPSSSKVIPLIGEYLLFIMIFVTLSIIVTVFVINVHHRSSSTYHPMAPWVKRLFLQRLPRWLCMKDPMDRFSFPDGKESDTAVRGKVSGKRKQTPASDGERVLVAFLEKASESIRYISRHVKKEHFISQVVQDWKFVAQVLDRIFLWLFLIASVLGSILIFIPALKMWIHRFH
Sequence of α6/α3β2β3 nAChR (P43143 whole entry, looked up): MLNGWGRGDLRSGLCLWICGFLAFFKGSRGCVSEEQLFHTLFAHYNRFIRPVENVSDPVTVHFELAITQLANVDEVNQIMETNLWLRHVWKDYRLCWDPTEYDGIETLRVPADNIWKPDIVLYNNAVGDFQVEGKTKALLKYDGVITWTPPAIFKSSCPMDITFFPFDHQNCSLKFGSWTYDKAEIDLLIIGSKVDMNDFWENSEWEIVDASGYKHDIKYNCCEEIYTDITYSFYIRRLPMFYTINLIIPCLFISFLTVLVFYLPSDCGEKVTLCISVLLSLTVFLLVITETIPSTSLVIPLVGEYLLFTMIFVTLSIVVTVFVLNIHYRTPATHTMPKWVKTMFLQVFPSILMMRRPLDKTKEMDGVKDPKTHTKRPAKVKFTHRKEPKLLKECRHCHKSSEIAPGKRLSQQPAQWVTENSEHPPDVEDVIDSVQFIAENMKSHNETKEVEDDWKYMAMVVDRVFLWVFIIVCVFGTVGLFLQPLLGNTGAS

α9α10 nAChR = α9α10 nAChR (Rattus norvegicus, UniProt P43144+Q9JLB5); assay: cell-based
Sequence of α9α10 nAChR (P43144 26-479 limits assumed): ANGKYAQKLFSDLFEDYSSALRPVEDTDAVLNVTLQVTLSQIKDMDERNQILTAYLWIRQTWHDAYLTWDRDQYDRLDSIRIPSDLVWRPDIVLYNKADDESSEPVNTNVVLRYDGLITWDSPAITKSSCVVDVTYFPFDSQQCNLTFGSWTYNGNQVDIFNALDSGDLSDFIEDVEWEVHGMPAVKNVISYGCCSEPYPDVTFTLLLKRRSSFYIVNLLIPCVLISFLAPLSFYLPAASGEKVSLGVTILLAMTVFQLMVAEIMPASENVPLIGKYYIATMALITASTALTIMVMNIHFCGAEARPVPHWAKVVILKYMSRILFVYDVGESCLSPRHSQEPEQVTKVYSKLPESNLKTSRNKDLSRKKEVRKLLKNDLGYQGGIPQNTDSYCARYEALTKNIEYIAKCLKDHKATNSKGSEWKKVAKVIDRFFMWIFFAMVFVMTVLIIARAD
Sequence of α9α10 nAChR (Q9JLB5 25-447 limits assumed): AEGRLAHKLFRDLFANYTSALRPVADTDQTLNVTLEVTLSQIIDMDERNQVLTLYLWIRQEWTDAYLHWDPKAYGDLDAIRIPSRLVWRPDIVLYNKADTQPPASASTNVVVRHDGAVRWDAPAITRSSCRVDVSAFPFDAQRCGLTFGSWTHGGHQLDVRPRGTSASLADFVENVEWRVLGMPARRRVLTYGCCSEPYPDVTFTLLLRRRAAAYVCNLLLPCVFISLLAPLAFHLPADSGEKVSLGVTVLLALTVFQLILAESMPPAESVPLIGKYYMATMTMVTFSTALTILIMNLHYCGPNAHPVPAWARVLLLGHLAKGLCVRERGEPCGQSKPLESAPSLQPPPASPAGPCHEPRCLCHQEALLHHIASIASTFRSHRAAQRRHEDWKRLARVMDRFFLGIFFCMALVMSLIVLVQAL

other nAChR subtypes = format: cell-based, rat

Sequence of α7 nAChR (Q05941 23-502 limits assumed): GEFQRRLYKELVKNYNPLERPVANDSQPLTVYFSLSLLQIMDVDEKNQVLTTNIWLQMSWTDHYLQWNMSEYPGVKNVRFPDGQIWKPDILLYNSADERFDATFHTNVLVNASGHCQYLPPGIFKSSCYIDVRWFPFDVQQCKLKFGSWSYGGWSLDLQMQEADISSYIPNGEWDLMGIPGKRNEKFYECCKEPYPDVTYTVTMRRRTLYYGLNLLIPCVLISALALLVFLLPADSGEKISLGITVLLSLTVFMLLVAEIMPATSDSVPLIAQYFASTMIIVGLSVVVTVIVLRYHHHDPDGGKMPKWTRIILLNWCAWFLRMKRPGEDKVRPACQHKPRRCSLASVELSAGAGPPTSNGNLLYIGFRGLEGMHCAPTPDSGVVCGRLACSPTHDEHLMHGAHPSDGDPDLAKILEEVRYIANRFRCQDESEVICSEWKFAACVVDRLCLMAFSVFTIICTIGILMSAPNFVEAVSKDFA

Row | Compound | IC50 (α7 nAChR) | IC50 (α2β2 nAChR) | Hill Slope (α3β2 nAChR) | IC50 (α3β2 nAChR) | fold lower potency than at α6/α3β2β3 (α3β2 nAChR) | IC50 (α3β4 nAChR) | IC50 (α4β2 nAChR) | Hill Slope (α6/α3β2β3 nAChR) | IC50 (α6/α3β2β3 nAChR) | IC50 (α9α10 nAChR) | inhibition (other nAChR subtypes) | IC50 (other nAChR subtypes; read-out: potency) | Hill Slope (α7 nAChR) | Hill Slope (α2β2 nAChR) | fold less potency than at muscle-type α1β1γδ (α3β2 nAChR) | Hill Slope (α3β4 nAChR) | Hill Slope (α4β2 nAChR) | Hill Slope (α9α10 nAChR) | IC50 (other nAChR subtypes; read-out: IC50)
1 | CC(C)C[C@@H]1NC(=O)[C@H](C(C)C)NC(=O)[C@H](C)NC(=O)[C@@H]2CSSC[C@H](NC(=O)CN)C(=O)N[C@@H](CSSC[C@@H](C(N)=O)NC(=O)[C@H](Cc3c[nH]cn3)NC1=O)C(=O)N[C@@H](CO)C(=O)N[C@@H]([C@@H](C)O)C(=O)N1CCC[C@H]1C(=O)N1CCC[C@H]1C(=O)N2 [AdIA] (H-GCCSTPPCAVLHC-NH2; disulfide 2-8, 3-13) | > 10 nM | > 10 nM | −1.24 | 1380 nM | at least 8 fold | > 10 nM | > 10 nM | −1.14 | 177 nM | > 10 nM | ≤ 50% | > 10000 nM | – | – | – | – | – | – | –
2 | C[C@@H]1NC(=O)[C@@H]2CCCN2C(=O)[C@H](Cc2c[nH]cn2)NC(=O)[C@@H]2CSSC[C@@H](C(N)=O)NC(=O)[C@H](CC(N)=O)NC(=O)[C@H](Cc3ccc(O)cc3)NC(=O)[C@H](CCCCN)NC(=O)[C@H](CCCNC(=N)N)NC(=O)CNC(=O)[C@H](CSSC[C@H](NC(=O)[C@H](CCCNC(=N)N)NC(=O)CN)C(=O)N2)NC1=O [GaIA] (H-GRCCHPACGRKYNC-NH2; disulfide 3-8, 4-14) | – | – | −1.25 | – | – | – | – | −0.87 | – | 777 nM | – | – | −1.45 | −1.09 | about 25 fold | −1.37 | −1.28 | −0.93 | > 1000 nM
